Measurements published in patent US9308215B2, “Avermectins and milbemycins as anti-mycobacterial agents” (priority 2013, dated 2016).
Values after ≈ are worked out from the molar mass of the structure shown. Read-outs that look alike come from different tables or passages of the source.

Key:
[1] = test system: R. jostii; test: microbe, parasite or virus in culture; type: cell-based, Rhodococcus jostii; details: strain RHA1, WT
[2] = test system: M. bovis BCG; test: microbe, parasite or virus in culture; type: cell-based, Mycobacterium bovis
[3] = test system: M. smegmatis; test: microbe, parasite or virus in culture; type: cell-based, Mycobacterium smegmatis; details: strain mc^2155, WT
[4] = test system: S. lividans; test: microbe, parasite or virus in culture; type: cell-based, Streptomyces lividans; details: strain 1326, WT
[5] = test system: K. rhizophila; test: microbe, parasite or virus in culture; type: cell-based, Kocuria rhizophila; details: WT
[6] = test system: representative Gram-positive and Gram-negative bacteria; type: cell-based
[7] = test system: S. aureus; test: microbe, parasite or virus in culture; type: cell-based, Staphylococcus aureus; details: strain ATCC 25923, WT
[8] = test system: E. coli; test: microbe, parasite or virus in culture; type: cell-based, Escherichia coli; details: strain O157:H7, WT
[9] = test system: P. aeruginosa; test: microbe, parasite or virus in culture; type: cell-based, Pseudomonas aeruginosa; details: strain PA01 (H103), WT
[10] = test system: M. tuberculosis; test: microbe, parasite or virus in culture; type: cell-based, Mycobacterium tuberculosis; details: for MIC90: Mycobacterium tuberculosis
[11] = test system: A. baumannii; test: microbe, parasite or virus in culture; type: cell-based, Acinetobacter baumannii; details: strain ATCC 1960, WT
[12] = Dogs, 250 μg/kg oral; cited from earlier work
[13] = test system: M. intracellulare; test: MIC against mycobacterial species; type: cell-based
[14] = single dose, cited from earlier work
[15] = test system: M. microti; test: microbe, parasite or virus in culture; type: cell-based
[16] = ivermectin: extra-label use; selamectin, moxidectin: therapeutic doses; cited from earlier work
[17] = test system: M. avium; test: MIC against mycobacterial species; type: cell-based, Mycobacterium avium
[18] = test system: M. chelonae; test: MIC against mycobacterial species; type: cell-based; details: M. chelonae
[19] = test system: M. phlei; test: MIC against mycobacterial species; type: cell-based; details: M. phlei
[20] = test system: M. gordonae; test: MIC against mycobacterial species; type: cell-based; details: M. gordonae 324
[21] = test system: M. aurum; test: MIC against mycobacterial species; type: cell-based; details: M. aurum
[22] = rats; cited from earlier work
[23] = mice; cited from earlier work
[24] = Humans, oral, cited from earlier work

Compound: CO[C@H]1C[C@H](O[C@H]2[C@H](C)O[C@@H](O[C@@H]3/C(C)=C/C[C@@H]4C[C@@H](C[C@]5(C=C[C@H](C)[C@@H](C6CCCCC6)O5)O4)OC(=O)[C@@H]4C=C(C)[C@@H](O)[C@H]5OC/C(=C\C=C\[C@@H]3C)[C@]54O)C[C@@H]2OC)O[C@@H](C)[C@@H]1O [Doramectin]
- In vitro MIC90 [1]: >256 mg/L
- In vitro MIC90 ([2]; strain BCG Pasteur, WT): 8 mg/L
- In vitro MIC90 [3]: 128 mg/L
- In vitro MIC90 [4]: >256 mg/L
- In vitro MIC90 [5]: >256 mg/L
- Inhibitory effects [6]: not observed
- In vitro MIC90 [7]: >256 mg/L
- In vitro MIC90 [8]: >256 mg/L
- In vitro MIC90 [9]: >256 mg/L
- level of activity ([10]; against all Mycobacterium species, MTT): lower levels of activity
- In vitro MIC90 ([10]; strain 1254, WT): 8 to 16 mg/L
- In vitro MIC90 ([10]; strain CDC 1551, WT): 4 to 8 mg/L
- In vitro MIC90 ([10]; strain Erdman, WT): 8 mg/L
- In vitro MIC90 ([10]; strain H37Rv, WT): 8 mg/L
- In vitro MIC90 [11]: >256 mg/L

Compound: CO/N=C1\C[C@]2(C[C@@H]3C[C@@H](C/C=C(\C)C[C@@H](C)/C=C/C=C4\CO[C@@H]5[C@H](O)C(C)=C[C@@H](C(=O)O3)[C@]45O)O2)O[C@H](/C(C)=C/C(C)C)[C@H]1C [Moxidectin]
- MIC90 ([1]; Rhodococcus jostii, read-out: In vitro MIC90): > 256 mg/L
- AUC [12]: 11.8 µg·h/mL
- Cmax [12]: 0.234 µg/mL
- T½ [12]: 25.9 days
- MIC ([13]; Mycobacterium intracellulare, M. intracellulare D673): > 256 mg/L
- MIC ([13]; Mycobacterium intracellulare, M. intracellulare FM): > 256 mg/L
- MIC ([13]; Mycobacterium intracellulare, M. intracellulare 1403 ATCC35761, read-out: MIC): 16 mg/L (≈ 25 µM)
- MIC ([13]; Mycobacterium intracellulare, M. intracellulare 1403 Trudeau, read-out: MIC): 32 mg/L (≈ 50 µM)
- dose reported safe in humans ([14]; clinical studies): up to 36 mg
- dose reported not safe in humans [14]: 54 mg
- MIC ([15]; M. microti 1601, read-out: MIC): 4 mg/L (≈ 6.25 µM)
- MIC ([15]; M. microti 1608, read-out: MIC): 4 mg/L (≈ 6.25 µM)
- MIC ([15]; M. microti Ov254, read-out: MIC): 4 mg/L (≈ 6.25 µM)
- toxicity in dogs lacking MDR1 P-glycoprotein / homozygous MDR1 mutation [16]: without any signs of toxicosis
- MIC ([17]; Mycobacterium avium): > 256 mg/L
- MIC ([17]; Mycobacterium avium, ATCC25291, M. avium ATCC 25291, read-out: MIC): > 128 mg/L
- MIC ([17]; Mycobacterium avium, M. avium 715): > 256 mg/L
- MIC ([18]; Mycobacteroides chelonae, read-out: MIC): 4 mg/L (≈ 6.25 µM)
- MIC ([19]; Mycolicibacterium phlei, read-out: MIC): 8 mg/L (≈ 12.5 µM)
- MIC ([20]; Mycobacterium gordonae, read-out: MIC): 4 mg/L (≈ 6.25 µM)
- MIC ([21]; Mycolicibacterium aurum, read-out: MIC): 1 mg/L (≈ 1.56 µM)
- MIC90 ([2]; Mycobacterium tuberculosis variant bovis BCG, BCG, read-out: In vitro MIC90): 4 mg/L (≈ 6.25 µM)
- MIC90 ([3]; Mycolicibacterium smegmatis, read-out: In vitro MIC90): 4 mg/L (≈ 6.25 µM)
- MIC90 ([4]; Streptomyces lividans, read-out: In vitro MIC90): > 256 mg/L
- MIC90 ([5]; Kocuria rhizophila, read-out: In vitro MIC90): > 256 mg/L
- LD50 [22]: 106 mg/kg body weight
- MIC90 ([7]; Staphylococcus aureus, ATCC25923, read-out: In vitro MIC90): > 256 mg/L
- MIC90 ([8]; Escherichia coli, read-out: In vitro MIC90): > 256 mg/L
- LD50 [23]: 84 mg/kg body weight
- MIC90 ([9]; Pseudomonas aeruginosa, read-out: In vitro MIC90): > 256 mg/L
- MIC90 ([10]; ERDMAN, read-out: In vitro MIC90, strain Erdman, WT): 2 to 4 mg/L (≈ 3.13 to 6.25 µM)
- MIC90 ([10]; read-out: In vitro MIC90, strain 1254, WT): 4 mg/L (≈ 6.25 µM)
- MIC90 ([10]; read-out: In vitro MIC90, strain BC-DS1 (drug-susceptible)): 4 mg/L (≈ 6.25 µM)
- MIC90 ([10]; read-out: In vitro MIC90, strain BC-DS3 (drug-susceptible)): 2 mg/L (≈ 3.13 µM)
- MIC90 ([10]; read-out: In vitro MIC90, strain BC-DS4 (drug-susceptible)): 2 mg/L (≈ 3.13 µM)
- MIC90 ([10]; read-out: In vitro MIC90, strain BC-DS5 (drug-susceptible)): 2 to 4 mg/L (≈ 3.13 to 6.25 µM)
- MIC90 ([10]; read-out: In vitro MIC90, strain CDC 1551, WT): 2 mg/L (≈ 3.13 µM)
- MIC90 ([11]; Acinetobacter baumannii, ATCC1960, read-out: In vitro MIC90): > 256 mg/L
- AUC ([24]; 3 mg fast): 1.442 µg·h/mL
- Cmax ([24]; 3 mg fast): 0.0224 µg/mL
- T½ ([24]; 3 mg fast): 33.8 days
- AUC ([24]; 9 mg fast): 3.024 µg·h/mL
- Cmax ([24]; 9 mg fast): 0.0579 µg/mL
- T½ ([24]; 9 mg fast): 34.6 days
- AUC ([24]; 18 mg fast): 5.856 µg·h/mL
- Cmax ([24]; 18 mg fast): 0.141 µg/mL
- T½ ([24]; 18 mg fast): 22 days
- AUC ([24]; 36 mg fast): 10.824 µg·h/mL
- Cmax ([24]; 36 mg fast): 0.289 µg/mL
- T½ ([24]; 36 mg fast): 20.2 days
- AUC ([24]; 36 mg fed): 14.976 µg·h/mL
- Cmax ([24]; 36 mg fed): 0.296 µg/mL
- T½ ([24]; 36 mg fed): 25.7 days

Compound: Abamectin
- MIC ([13]; M. intracellulare 1403 ATCC35761): 16 mg/L
- MIC ([13]; M. intracellulare 1403 Trudeau): 16 mg/L
- MIC ([13]; M. intracellulare D673): 32 mg/L
- MIC ([13]; M. intracellulare FM): 16 mg/L
- MIC ([15]; M. microti 1601): 16 mg/L
- MIC ([15]; M. microti 1608): 64 mg/L
- MIC ([15]; M. microti Ov254): 256 mg/L
- MIC ([17]; M. avium 702): >256 mg/L
- MIC ([17]; M. avium 715): >256 mg/L
- MIC [18]: 16 mg/L
- MIC [19]: >256 mg/L
- MIC [20]: 16 mg/L
- MIC [21]: 8 mg/L
